Assay results taken from US6346535B1, “Fungicidal mixtures” (American Cyanamid Company, priority 1999, dated 2002).
Read-outs that look alike come from different tables or passages of the source.

What was measured:
Assay type in all cases: in vivo
[1] = tested on: Puccinia recondita on wheat; test: Greenhouse trial, 4 day residual, Puccinia recondita on wheat; conditions: for pest or weed control at 4 ppm / pest or weed control at 16 ppm / pest or weed control at 64 ppm / pest or weed control at 256 ppm / pest or weed control at 0.4 ppm / pest or weed control at 2 ppm / pest or weed control at 10 ppm / pest or weed control at 50 ppm: Puccinia recondita, 96 h, read-out: Observed Efficacy; for pest or weed control at 4 ppm / pest or weed control at 16 ppm / pest or weed control at 64 ppm / pest or weed control at 256 ppm / Observed Efficacy: compound alone; for pest or weed control at 0.4 ppm / pest or weed control at 2 ppm / pest or weed control at 10 ppm / pest or weed control at 50 ppm: Table XV (Example 15), 4 day residual; for pest or weed control at 0.4 ppm: dose rate 0.4 ppm; for pest or weed control at 2 ppm: dose rate 2 ppm; for pest or weed control at 10 ppm: dose rate 10 ppm; for pest or weed control at 50 ppm: dose rate 50 ppm
Excerpt: (§1) The fungicides are applied in single treatments, or in a combination comprising a benzophenone of formula I and a compound selected from (A) through (E) as defined above. The compounds are applied in form of an aqueous spray mix obtained from a concentrated formulation or the technical material.
(§2) 1. Seed is planted in 6 cm diameter plastic pots and maintained in the greenhouse.
(§3) 2. When the primary leaf is fully expanded (in the case of cereals) or several leaves are present (in the case of dicots), formulated test compounds are sprayed with a three nozzle overhead fungicide sprayer to near run-off. Alternatively, a single nozzle overhead track sprayer is used for application of the compounds to cereals at a rate of 200 liters/ha (l/ha). Plants are then allowed to air-dry.
(§4) 3. Inoculation precedes treatment in the case of curative evaluations and follows treatment in case of residual evaluations. For inoculation of powdery mildew disease, plants are set up on greenhouse benches with bottom watering mats and inoculated by dusting them with conidia from infected plants. Between inoculation and treatment for curative evaluations and between treatment and inoculation for residual evaluations, plants are maintained in the greenhouse with bottom watering. For inoculation of non-powdery mildew diseases, an aqueous spore suspension of the pathogen is applied to the plant and the plants are kept 1-2 days in a moist infection chamber before being returned to the greenhouse where they are maintained by bottom watering.
(§5) 4. Disease on the foliage as percent leaf area with disease symptoms/signs is evaluated about 7 days after inoculation. In the case of wheat, the tips and bases of the leaves are excluded from the evaluation. [formula]
(§6) 1. Technical compounds are formulated in a solvent/surfactant system consisting of 5% acetone and 0.05% Tween 20 in deionized water. Compounds are dissolved in acetone prior to addition of the water; the Tween 20 can be added through either the acetone or the water. Dilutions are made using the solvent/surfactant system. Formulated compounds are prepared using deionized water.
(§7) Assessments of the diseases took place at the indicated day after the application of the compounds. Per cent infected leaf area infected was evaluated. The efficacy of the compounds/compounds mixtures to control the diseases was calculated by using the formula given above under item 4: […]
(§8) Synergy of a fungicide mixture was determined by comparing the actual (observed) fungicidal activity of the mixture to the expected fungicidal activity of the mixture as calculated using the COLBY formula given hereinabove.
Fungicidal Efficacy of the Mixture of BP-4+Other Fungicides (4 Day Residual) Against Puccinia recondita on Wheat
Fungicidal Efficacy of the Mixture of BP-4+Myclobutanil (4 Day Residual) Against Puccinia recondita on Wheat

[2] = tested on: Leptosphaeria nodorum on wheat; test: Greenhouse trial, 4 day residual, Leptosphaeria nodorum on wheat; conditions: for pest or weed control at 4 ppm / pest or weed control at 16 ppm / pest or weed control at 64 ppm / pest or weed control at 256 ppm: Parastagonospora nodorum, 96 h, read-out: Observed Efficacy
Excerpt: as §1, §2, §3, §4, §5, §6, §7, §8
Fungicidal Efficacy of the Mixture of BP-4+Other Fungicides (4 Day Residual) Against Leptosphaeria nodorum on Wheat

[3] = tested on: Erysiphe cichoracearum on cucumbers; test: Greenhouse trial, 4 day residual, Erysiphe cichoracearum on cucumbers; conditions: for pest or weed control at 4 ppm / pest or weed control at 16 ppm / pest or weed control at 64 ppm / pest or weed control at 256 ppm / pest or weed control at 0.4 ppm / pest or weed control at 2 ppm / pest or weed control at 10 ppm / pest or weed control at 50 ppm: Golovinomyces cichoracearum, 96 h, read-out: Observed Efficacy
Excerpt: as §1, §2, §3, §4, §5, §6, §7, §8

[4] = Table VIII, compound alone, dose rate 4 ppm
[5] = Table VIII, compound alone, dose rate 16 ppm
[6] = Table VIII, compound alone, dose rate 64 ppm
[7] = Table VIII, compound alone, dose rate 256 ppm
[8] = Table VI, compound alone, dose rate 4 ppm
[9] = Table VI, compound alone, dose rate 16 ppm
[10] = Table VI, compound alone, dose rate 64 ppm
[11] = Table VI, compound alone, dose rate 256 ppm
[12] = Table XI, compound alone, dose rate 0.4 ppm
[13] = Table XI, compound alone, dose rate 2 ppm
[14] = Table XI, compound alone, dose rate 10 ppm
[15] = Table XI, compound alone, dose rate 50 ppm
[16] = Table X, compound alone, dose rate 64 ppm
[17] = Table X, compound alone, dose rate 256 ppm
[18] = Table XIV (Example 14), 4 day residual, dose rate 0.4 ppm
[19] = Table XIV (Example 14), 4 day residual, dose rate 2 ppm
[20] = Table XIV (Example 14), 4 day residual, dose rate 10 ppm
[21] = Table XIV (Example 14), 4 day residual, dose rate 50 ppm

N#Cc1sc2c(=O)c3ccccc3c(=O)c=2sc1C#N [Dithianon]
pest or weed control at 4 ppm ([1]; Table VII, dose rate 4 ppm): 4% | pest or weed control at 16 ppm ([1]; Table VII, dose rate 16 ppm): 16% | pest or weed control at 64 ppm ([1]; Table VII, dose rate 64 ppm): 84% | pest or weed control at 256 ppm ([1]; Table VII, dose rate 256 ppm): 95% | pest or weed control at 4 ppm [2, 4]: 0% | pest or weed control at 16 ppm [2, 5]: 1% | pest or weed control at 64 ppm [2, 6]: 37% | pest or weed control at 256 ppm [2, 7]: 74% | pest or weed control at 4 ppm [3, 8]: 0% | pest or weed control at 16 ppm [3, 9]: 0% | pest or weed control at 64 ppm [3, 10]: 0% | pest or weed control at 256 ppm [3, 11]: 0%

Quinoxyfen
Observed Efficacy ([1]; Table VII, dose rate 4 ppm): 0% | Observed Efficacy ([1]; Table VII, dose rate 16 ppm): 0% | Observed Efficacy ([1]; Table VII, dose rate 64 ppm): 0% | Observed Efficacy ([1]; Table VII, dose rate 256 ppm): 0% | Observed Efficacy [2, 5]: 1% | Observed Efficacy [2, 6]: 0% | Observed Efficacy [2, 7]: 18% | Observed Efficacy [3, 8]: 90% | Observed Efficacy [3, 9]: 100% | Observed Efficacy [3, 10]: 100% | Observed Efficacy [3, 11]: 100%

Cyprodinil
Observed Efficacy ([1]; Table VII, dose rate 4 ppm): 0% | Observed Efficacy ([1]; Table VII, dose rate 16 ppm): 0% | Observed Efficacy ([1]; Table VII, dose rate 64 ppm): 0% | Observed Efficacy ([1]; Table VII, dose rate 256 ppm): 0% | Observed Efficacy [2, 4]: 0% | Observed Efficacy [2, 5]: 75% | Observed Efficacy [2, 6]: 88% | Observed Efficacy [2, 7]: 93% | Observed Efficacy [3, 8]: 0% | Observed Efficacy [3, 9]: 0% | Observed Efficacy [3, 10]: 0% | Observed Efficacy [3, 11]: 15%

COCC(=O)N(c1c(C)cccc1C)C(C)C(=O)OC (stereo not drawn) [Metalaxyl]
pest or weed control at 64 ppm ([1]; Table IX, dose rate 64 ppm): 0% | pest or weed control at 256 ppm ([1]; Table IX, dose rate 256 ppm): 12%

Mancozeb
Observed Efficacy ([1]; Table VII, dose rate 4 ppm): 0% | Observed Efficacy ([1]; Table VII, dose rate 16 ppm): 0% | Observed Efficacy ([1]; Table VII, dose rate 64 ppm): 28% | Observed Efficacy ([1]; Table VII, dose rate 256 ppm): 91% | Observed Efficacy [2, 4]: 0% | Observed Efficacy [2, 5]: 21% | Observed Efficacy [2, 6]: 47% | Observed Efficacy [2, 7]: 69% | Observed Efficacy [3, 8]: 0% | Observed Efficacy [3, 9]: 0% | Observed Efficacy [3, 10]: 1% | Observed Efficacy [3, 11]: 33%

N#Cc1c(Cl)c(Cl)c(Cl)c(C#N)c1Cl [Chlorothalonil]
pest or weed control at 4 ppm ([1]; Table VII, dose rate 4 ppm): 0% | pest or weed control at 16 ppm ([1]; Table VII, dose rate 16 ppm): 0% | pest or weed control at 64 ppm ([1]; Table VII, dose rate 64 ppm): 0% | pest or weed control at 256 ppm ([1]; Table VII, dose rate 256 ppm): 31% | pest or weed control at 4 ppm [3, 8]: 0% | pest or weed control at 16 ppm [3, 9]: 0% | pest or weed control at 64 ppm [3, 10]: 0% | pest or weed control at 256 ppm [3, 11]: 1%

CC(C)(C)C(O)(CCc1ccc(Cl)cc1)Cn1cncn1 (stereo not drawn) [Tebuconazole]
pest or weed control at 0.4 ppm [3, 12]: 10% | pest or weed control at 2 ppm [3, 13]: 45% | pest or weed control at 10 ppm [3, 14]: 79% | pest or weed control at 50 ppm [3, 15]: 95%

CC(Oc1ccc(Cl)cc1Cl)C(=O)NC(C)(C#N)C(C)C (stereo not drawn) [AC 382042]
Observed Efficacy [3, 12]: 7% | Observed Efficacy [3, 13]: 3% | Observed Efficacy [3, 14]: 14% | Observed Efficacy [3, 15]: 25%

CCCCCCCCCCCCNC(=N)N [Dodine]
pest or weed control at 4 ppm [2]: 0% | pest or weed control at 16 ppm [2]: 6% | pest or weed control at 64 ppm [2]: 24% | pest or weed control at 256 ppm [2]: 59%

CSC(=O)c1cccc2nnsc12 [BION, acibenzolar]
Observed Efficacy ([1]; Table VII, dose rate 4 ppm): 0% | Observed Efficacy ([1]; Table VII, dose rate 16 ppm): 0% | Observed Efficacy ([1]; Table VII, dose rate 64 ppm): 0% | Observed Efficacy ([1]; Table VII, dose rate 256 ppm): 0% | Observed Efficacy [3, 8]: 0% | Observed Efficacy [3, 9]: 0% | Observed Efficacy [3, 10]: 0% | Observed Efficacy [3, 11]: 0%

Fc1ccc([C@]2(Cn3cncn3)O[C@H]2c2ccccc2Cl)cc1 (racemic) [Epoxiconazole]
pest or weed control at 0.4 ppm [3, 12]: 0% | pest or weed control at 2 ppm [3, 13]: 46% | pest or weed control at 10 ppm [3, 14]: 68% | pest or weed control at 50 ppm [3, 15]: 77%

Ethirimol
Observed Efficacy ([1]; Table VII, dose rate 16 ppm): 0% | Observed Efficacy ([1]; Table VII, dose rate 64 ppm): 0% | Observed Efficacy ([1]; Table VII, dose rate 256 ppm): 0% | Observed Efficacy [3, 8]: 50% | Observed Efficacy [3, 9]: 83% | Observed Efficacy [3, 10]: 94% | Observed Efficacy [3, 11]: 100%

C[C@@]1(c2ccc(Oc3ccccc3)cc2)OC(=O)N(Nc2ccccc2)C1=O (racemic) [Famoxadone]
pest or weed control at 4 ppm ([1]; Table IX, dose rate 4 ppm): 45% | pest or weed control at 16 ppm ([1]; Table IX, dose rate 16 ppm): 80% | pest or weed control at 64 ppm ([1]; Table IX, dose rate 64 ppm): 92% | pest or weed control at 4 ppm ([2]; Table X, compound alone, dose rate 4 ppm): 66% | pest or weed control at 16 ppm ([2]; Table X, compound alone, dose rate 16 ppm): 69% | pest or weed control at 64 ppm [2, 16]: 80% | pest or weed control at 256 ppm [2, 17]: 97%

CO/C=C(/C(=O)OC)c1ccccc1Oc1cc(Oc2ccccc2C#N)ncn1 [Azoxystrobin]
Observed Efficacy [2, 4]: 84% | Observed Efficacy [2, 5]: 97% | Observed Efficacy [2, 6]: 100% | Observed Efficacy [2, 7]: 100% | Observed Efficacy [3, 8]: 78% | Observed Efficacy [3, 9]: 96% | Observed Efficacy [3, 10]: 100% | Observed Efficacy [3, 11]: 100%

CC(C)(C)C(O)C(Oc1ccc(Cl)cc1)n1cncn1 (stereo not drawn) [Triadimenol]
pest or weed control at 0.4 ppm [1]: 1% | pest or weed control at 2 ppm [1]: 21% | pest or weed control at 10 ppm [1]: 69% | pest or weed control at 50 ppm [1]: 98% | pest or weed control at 0.4 ppm [3, 18]: 1% | pest or weed control at 2 ppm [3, 19]: 21% | pest or weed control at 10 ppm [3, 20]: 45% | pest or weed control at 50 ppm [3, 21]: 68%

O=C1C2CC=CCC2C(=O)N1SC(Cl)(Cl)Cl (stereo not drawn) [Captan]
pest or weed control at 4 ppm ([1]; Table IX, dose rate 4 ppm): 4% | pest or weed control at 16 ppm ([1]; Table IX, dose rate 16 ppm): 11% | pest or weed control at 64 ppm ([1]; Table IX, dose rate 64 ppm): 55% | pest or weed control at 256 ppm ([1]; Table IX, dose rate 256 ppm): 89% | pest or weed control at 64 ppm [2, 16]: 84% | pest or weed control at 256 ppm [2, 17]: 90%

CCCC(Cn1cncn1)c1ccc(Cl)cc1Cl (stereo not drawn) [Penconazole]
pest or weed control at 0.4 ppm [1]: 0% | pest or weed control at 2 ppm [1]: 3% | pest or weed control at 10 ppm [1]: 10% | pest or weed control at 50 ppm [1]: 26% | pest or weed control at 0.4 ppm [3, 18]: 6% | pest or weed control at 2 ppm [3, 19]: 35% | pest or weed control at 10 ppm [3, 20]: 37% | pest or weed control at 50 ppm [3, 21]: 67%

N#Cc1c[nH]cc1-c1cccc(Cl)c1Cl [Fenpiclonil]
pest or weed control at 4 ppm ([1]; Table IX, dose rate 4 ppm): 1% | pest or weed control at 16 ppm ([1]; Table IX, dose rate 16 ppm): 0% | pest or weed control at 64 ppm ([1]; Table IX, dose rate 64 ppm): 18% | pest or weed control at 256 ppm ([1]; Table IX, dose rate 256 ppm): 58%

O=[N+]([O-])c1cc(C(F)(F)F)c(Cl)c([N+](=O)[O-])c1Nc1ncc(C(F)(F)F)cc1Cl [Fluazinam]
pest or weed control at 4 ppm ([1]; Table IX, dose rate 4 ppm): 0% | pest or weed control at 16 ppm ([1]; Table IX, dose rate 16 ppm): 6% | pest or weed control at 64 ppm ([1]; Table IX, dose rate 64 ppm): 22% | pest or weed control at 256 ppm ([1]; Table IX, dose rate 256 ppm): 80% | pest or weed control at 64 ppm [2, 16]: 81% | pest or weed control at 256 ppm [2, 17]: 91%
